{"source": "patent US7838495B2", "about": "“Compositions and methods of use of EPB1, and ErbB3 binding protein” (University of Maryland, Baltimore, priority 2007, dated 2010)", "assay_type_in_all_cases": "cell-based, human", "key": {"[1]": {"tested_on": "LNCaP cells", "assay": "Growth response of LNCaP vector controls and EBP1 transfectants to DHT and bicalutamide", "parameters": "Emax: dose or concentration left out as unconfirmed", "experimental": "Cell Growth Assays: To measure growth in complete media, cells (2×10^4) were seeded in triplicate in individual wells of 12-well tissue culture plates in RPMI-1640 with 10% FBS and cultured for the indicated number of days. Cells were trypsinized, stained with Trypan Blue (0.4%), and counted in a hemacytometer. For soft agar growth assays, increasing concentrations of cells (as indicated) were plated in 35 mm Petri dishes in complete media and 0.3% Difco Bacto Agar over an 0.5% agar layer. Colonies were counted after 10 days of incubation. For studies assessing the effect of dihydrotestosterone (DHT) on cell growth, cells (2×10^4) were plated in 12-well plates in complete media. After a 24-hour attachment period, the medium was replaced with steroid-free medium [phenol red-free RPMI 1640 and 5% charcoal-stripped FBS (Sigma)] for 48 hours. The final concentration of testosterone in the steroid-reduced media was less than 5 pM. After 48 hours of steroid depletion, cells were re-fed with fresh steroid-reduced medium with or without the indicated concentrations of DHT and/or bicalutamide (10 μM), and total cell numbers were assessed 7 days later."}, "[2]": {"tested_on": "C81 cells", "assay": "Response of C81 transfectants to DHT and bicalutamide", "details": "steroid reduced medium", "experimental": "FIG. 4A-C. […] Equal numbers (5×10^4) of vector or EBP1 stably transfected cells were plated at Day 0 in complete media and viable cell numbers determined at the indicated times. Each point represents mean±S.E. of 3 wells. Representative of 3 experiments (Right panel). Colony growth in soft agar. C81 cells stably transfected with either pcDNA or EBP1 were plated in soft agar at the cell densities indicated and colony numbers assessed at Day 10. Each point represents mean±S.E. of 3 dishes. Data is representative of 3 experiments. B. (Left Panel) Response of EBP1 and vector transfected C81 cells to dihydrotestosterone (DHT). EBP1 and vector control C81 transfected cells and early passage LNCaP cells were plated in complete media at 5×10^3 cells/well in 96 well plates for one day. […] Total cell numbers were determined seven days later by MTT assays. […] Total cell numbers were assessed 7 days later by MTT assay. […] Total cell numbers were determined by MTT assays 5 days later. […]\nWestern Blot Analysis. […] For soft agar growth assays, increasing concentrations of cells (as indicated) were plated in 35 mm Petri dishes in 0.3% agar in complete media and colonies were counted after 10 days of incubation (21). […] Relative cell growth was determined using a Promega Proliferation Reagent (Promega, Madison Wis.) as per manufacturer's instructions with absorbance being read at […] using a Dynex plate reader. […]"}, "[3]": {"tested_on": "C81 cells", "assay": "Sensitivity of C81 transfectants to chemotherapeutic drugs (MTT)", "details": "for sensitivity to Docetaxel: androgen deprived conditions; for decrease of growth: 20 nM, steroid reduced media", "experimental": "FIG. 4A-C. […] Equal numbers (5×10^4) of vector or EBP1 stably transfected cells were plated at Day 0 in complete media and viable cell numbers determined at the indicated times. Each point represents mean±S.E. of 3 wells. Representative of 3 experiments (Right panel). Colony growth in soft agar. C81 cells stably transfected with either pcDNA or EBP1 were plated in soft agar at the cell densities indicated and colony numbers assessed at Day 10. Each point represents mean±S.E. of 3 dishes. Data is representative of 3 experiments. B. (Left Panel) Response of EBP1 and vector transfected C81 cells to dihydrotestosterone (DHT). EBP1 and vector control C81 transfected cells and early passage LNCaP cells were plated in complete media at 5×10^3 cells/well in 96 well plates for one day. The next day, cells were switched to steroid reduced medium for two days as described in the Materials and Methods. DHT was then added at the indicated concentrations. Cells were refed media every 3 days. Total cell numbers were determined seven days later by MTT assays. Each point represents mean±S.E. of 6 wells. Data is representative of two experiments. (Right Panel) Effect of Bicalutamide on DHT stimulated growth. Cells were plated as described in the Materials and Methods. After 2 days in steroid reduced medium, cells were fed with fresh steroid reduced medium with or without 10 μM bicalutamide (Casodex) in the presence or absence of 10 nM DHT. Total cell numbers were assessed 7 days later by MTT assay. Cells were refed media every 3 days. The data shown are mean±S.E. of six wells. […] C. […] C81 vector control or EBP1 transfectants were plated in 96 well plates in complete media and allowed to attach overnight. The cells were then placed in steroid reduced media for two days and then refed with steroid reduced media in the presence of the indicated concentrations of Docetaxel (left panel) or Mitoxantrone (right panic). Total cell numbers were determined by MTT assays 5 days later. Each point represents mean±S.E. of 6 wells. Data is representative of two experiments.\nWestern Blot Analysis. Western blot analysis was performed as previously described (19). The Ebp1 antibody was from Upstate (Lake Placid, N.Y.), the polyclonal antibody to actin from Sigma, the AKT and phospho AKT antibodies from Cell Signaling (Beverly, Mass.) and the AGR2 antibody was previously described (20) Cell Growth Assays Cell growth measurement in complete media was performed as described using a hemocytometer (21). For soft agar growth assays, increasing concentrations of cells (as indicated) were plated in 35 mm Petri dishes in 0.3% agar in complete media and colonies were counted after 10 days of incubation (21). For studies assessing the effect of DHT, HRG or chemotherapeutic agents on cell growth, cells (5×10^3) were plated in 96 well plates in complete media. After a 24-hour attachment period, the medium was replaced with steroid free medium [phenol red free RPMI 1640 and 5% charcoal stripped fetal bovine serum (Sigma)]. After 48 hours of steroid depletion, cells were refed with fresh steroid reduced medium with or without the indicated concentrations of DHT, bicalutamide (Casodex) (10 μM), HRG or the chemotherapeutic drugs at the concentrations indicated. Relative cell growth was determined using a Promega Proliferation Reagent (Promega, Madison Wis.) as per manufacturer's instructions with absorbance being read at […] using a Dynex plate reader. […]"}, "[4]": {"tested_on": "LNCaP cells", "assay": "Response of A16 and C13 LNCaP cells to docetaxel (MTT)", "experimental": "FIG. 7A-C. Suppression of EBP1 by shRNA promotes a hormone refractory phenotype A. Western blot analysis of Ebp1. Lysates of LNCaP cells stably transduced with a control lentivirus (A16) or an EBP1 targeted shRNA (13C) were collected and resolved by SDS-PAGE. Western blots were probed for endogenous EBP1 or ACTIN as indicated. B. Inhibition of EBP1 expression abrogates the ability of HRG to arrest growth (Left panel) Control and shRNA EBP1 targeted cells were plated in complete media at […] for one day. The next day, cells were switched to steroid reduced-media and HRG added at the indicated concentrations. Total cell numbers were determined seven days later by MTT assay. Each point represents mean±S.E. of 6 wells. Data is representative of three experiments. (Right Panel) AKT phosphorylation in EBP1 knock out cells Control (A16) or EBP 1 knock out cells (C13) were treated with HRG (20 ng/ml) for 15 mm and cell lysates assessed for the presence of phospho and total AKT as indicated. C. […] Sixteen hours later, luciferase activity was measured. […] Lysates of logarithmically growing A16 and C13 cells were resolved by SDS-PAGE and analyzed by Western blotting using antibodies to AGR2 and ACTIN as indicated. […] The viability of the cells was determined by MTT assays 5 days later. […]"}, "[5]": {"tested_on": "MCF-7 cells", "assay": "Growth of MCF-7 vector control and EBP1 transfectants in response to HRG or EGF", "experimental": "FIG. 9A-D. Ectopic expression of EBP1 blocks HRG-induced proliferation. (A) MCF 7 cells were stably transfected with a control Flag vector (CMV) or a FLAG-EBP1 vector (EBP1). Cells lysates were analyzed by Western blotting for FLAG and actin levels as indicated (left panel) or EBP1 and actin (right panel). (B) MCF-7 vector control (Control) or EBP1 transfected cells (EBP1) were plated in 96-well plates in complete media overnight, and then switched to media with 2% FBS and the indicated concentrations of HRGb1 as described in Section 2. Growth was determined 4 days later using a Promega Proliferation Assay. Each point represents the mean±SD for six wells. Data shown are representative of three experiments. (C) AU565 vector control (Control) or EBP1 transfected cells (EBP1) were plated in 96-well plates in complete media overnight, and then switched to media with 2% FBS and the indicated concentrations of HRGβ1. Growth was determined 4 days later using a Promega Proliferation Assay. Each point represents the mean±SD for six wells and is representative of two experiments. […] Growth was determined 4 days later using a Promega Proliferation Assay. […]\n2.5. […] Protein concentrations were measured using a detergent compatible kit (Bio-Rad). […] Images were quantified using IMAGE-J software (NIH). […]"}}}
{"compound": "C[C@]12CCC(=O)C[C@@H]1CC[C@@H]1[C@@H]2CC[C@]2(C)[C@@H](O)CC[C@@H]12", "note": "[DHT, dihydrotestosterone]", "values": [{"measurement": "Emax", "setting": "[1]; Homo sapiens, LNCaP, read-out: maximal stimulation of growth by DHT", "result": 250, "unit": "%"}, {"measurement": "stimulation of growth by DHT", "setting": "[1]; LNCaP EBP1 transfectants, 10^-9 M DHT", "result": 35, "unit": "%"}, {"measurement": "growth response to androgen (DHT)", "setting": "[2]; EBP1 transfected C81 cells", "result": "responded to androgen in a similar manner as the original low passage LNCaP androgen sensitive cells"}, {"measurement": "growth response to androgen (DHT)", "setting": "[2]; vector control C81 cells", "result": "unresponsive"}]}
{"compound": "CC(=O)O[C@@]12CO[C@@H]1C[C@H](O)[C@@]1(C)C(=O)[C@H](O)C3=C(C)[C@@H](OC(=O)[C@H](O)[C@@H](NC(=O)OC(C)(C)C)c4ccccc4)C[C@@](O)([C@@H](OC(=O)c4ccccc4)[C@H]21)C3(C)C", "note": "[Docetaxel]", "values": [{"measurement": "sensitivity to Docetaxel", "setting": "[3]; C81 cells", "result": "relatively refractory"}, {"measurement": "sensitivity to Docetaxel", "setting": "[3]; EBP1 transfected C81 cells, 5-20 nM", "result": "significantly more sensitive"}, {"measurement": "reduction in growth", "setting": "[4]; A16 control LNCaP cells, 5 nM", "result": 65, "unit": "%"}, {"measurement": "inhibition at 0.02 µM", "setting": "[4]; Homo sapiens, C13 EBP1 knock down LNCaP cells, 20 nM, read-out: maximum growth inhibition", "result": 15, "unit": "%"}]}
{"compound": "O=C1c2c(O)ccc(O)c2C(=O)c2c(NCCNCCO)ccc(NCCNCCO)c21", "note": "[Mitoxantrone]", "values": [{"measurement": "decrease of growth", "setting": "[3]; C81 EBP1 transfectants", "result": "approximately 80%"}, {"measurement": "decrease of growth", "setting": "[3]; C81 vector controls", "result": 40, "unit": "%"}, {"measurement": "concentration at which sensitivity plateaued", "setting": "[3]; both vector control and EBP1 transfectants", "result": 20, "unit": "nM"}]}
{"compound": "EGF: growth factor from Sigma used to stimulate MCF-7 growth", "values": [{"measurement": "growth response to EGF", "setting": "[5]; MCF-7 EBP1 transfected cells", "result": "growth stimulated by EGF to the same extent as control cells"}, {"measurement": "growth response to EGF", "setting": "[5]; MCF-7 control cells", "result": "able to respond to EGF"}]}
